Assay results taken from US9365522B2, “Pyrazole amide derivative” (AMGEN INC., priority 2015, dated 2016).

Target: T1, human RORγ-LBD (Homo sapiens, UniProt P51449)
T1 construct: made in house; host or cells: E. coli (BL-21)
T1 sequence (P51449 262-518): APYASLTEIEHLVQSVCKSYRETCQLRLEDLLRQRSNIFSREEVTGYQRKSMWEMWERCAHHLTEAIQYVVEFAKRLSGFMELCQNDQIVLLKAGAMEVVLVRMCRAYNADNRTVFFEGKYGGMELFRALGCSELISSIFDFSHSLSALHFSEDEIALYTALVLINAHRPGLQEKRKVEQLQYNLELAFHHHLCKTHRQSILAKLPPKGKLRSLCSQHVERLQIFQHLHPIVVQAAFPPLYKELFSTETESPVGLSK
Assay: ROR gamma coactivator peptide recruitment Alphascreen assay (RORγ-LBD binding to GRIP1 coactivator peptide)
Assay type: biochemical
Settings: 5 nM human RORγ-LBD, 30 nM 7-β-hydroxycholesterol, 50 nM biotinylated GRIP1 coactivator peptide, overnight incubation at room temperature; read-out: result (pIC50, RORγ coactivator peptide recruitment Alphascreen assay) (converted)
Outline: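 Alphascreen proximity read-out after overnight room-temperature incubation, yielding pIC50 from 1-in-2 compound series (2.5% DMSO final). Mixture: 50 nM biotin-GRIP1 peptide, 30 nM 7-β-hydroxycholesterol agonist, 5 nM recombinant 6×His:Flag human RORγ-LBD (aa 262-518), 50 mM HEPES pH 7.4.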

Row | Compound | IC50 [nM]
1 | CC1(CN(CC(=O)c2c(Cl)cncc2Cl)C(=O)c2cnn([C@H]3CC[C@](C)(C(=O)O)CC3)c2C(F)(F)F)CC(F)(F)C1 [Example 863, trans-4-(4-((2-(3,5-dichloro-4-pyridinyl)-2-oxoethyl)((3,3-difluoro-1-methylcyclobutyl)methyl)carbamoyl)-5-(trifluoromethyl)-1H-pyrazol-1-yl)-1-methylcyclohexanecarboxylic acid] | 6.46
2 | C[C@@H]1C[C@H](n2ncc(C(=O)N(CC(=O)c3c(Cl)cncc3Cl)C[C@]34CC[C@H](CC3)O4)c2C(F)(F)F)CC[C@H]1C(=O)O [Example 867, (1S,2S,4S)-4-(4-((2-(3,5-dichloro-4-pyridinyl)-2-oxoethyl)((1s,4s)-7-oxabicyclo[2.2.1]hept-1-ylmethyl)carbamoyl)-5-(trifluoromethyl)-1H-pyrazol-1-yl)-2-methylcyclohexanecarboxylic acid] | 24.5
3 | COc1ncc(Cl)c(CCN(CC(C)(C)C)C(=O)c2cnn([C@H]3CC[C@](C)(C(=O)O)CC3)c2C(F)(F)F)c1Cl [Example 872, trans-4-(4-((2-(3,5-dichloro-2-methoxy-4-pyridinyl)ethyl)(2,2-dimethylpropyl)carbamoyl)-5-(trifluoromethyl)-1H-pyrazol-1-yl)-1-methylcyclohexanecarboxylic acid] | 97.7
4 | C[C@H]1C[C@H](n2ncc(C(=O)N(CC(=O)c3c(Cl)cncc3Cl)CC(C)(C)C(F)(F)F)c2C(F)(F)F)CC[C@H]1C(=O)O [Example 875, (1R,2S,4R)-4-(4-((2-(3,5-dichloro-4-pyridinyl)-2-oxoethyl)(3,3,3-trifluoro-2,2-dimethylpropyl)carbamoyl)-5-(trifluoromethyl)-1H-pyrazol-1-yl)-2-methylcyclohexanecarboxylic acid] | 11.7

The next lines start with the values.

Row | IC50 [nM] | Compound
5 | 4.57 | CC(C)(C)CN(CC(=O)c1c(Cl)cncc1Cl)C(=O)c1cnn([C@H]2CC[C@](C)(C(=O)O)C[C@H]2F)c1C(F)(F)F [Example 868, (1S,3R,4S)-4-(4-((2-(3,5-dichloro-4-pyridinyl)-2-oxoethyl)(2,2-dimethylpropyl)carbamoyl)-5-(trifluoromethyl)-1H-pyrazol-1-yl)-3-fluoro-1-methylcyclohexanecarboxylic acid]
6 | 13.8 | CC(C)(C)CN(CC(=O)c1c(Cl)cncc1Cl)C(=O)c1cnn([C@@H]2CC[C@@](C)(C(=O)O)C[C@@H]2F)c1C(F)(F)F [Example 869, (1R,3S,4R)-4-(4-((2-(3,5-dichloro-4-pyridinyl)-2-oxoethyl)(2,2-dimethylpropyl)carbamoyl)-5-(trifluoromethyl)-1H-pyrazol-1-yl)-3-fluoro-1-methylcyclohexanecarboxylic acid]
7 | 575 | CC(C)(C)CN(CC(=O)c1c(Cl)cncc1Cl)C(=O)c1cnn([C@H]2CC[C@@](C)(C(=O)O)C[C@@H]2F)c1C(F)(F)F [Example 870, (1R,3S,4S)-4-(4-((2-(3,5-dichloro-4-pyridinyl)-2-oxoethyl)(2,2-dimethylpropyl)carbamoyl)-5-(trifluoromethyl)-1H-pyrazol-1-yl)-3-fluoro-1-methylcyclohexanecarboxylic acid]
8 | 5.01 | CC(C)(C)CN(CC(=O)c1c(Cl)cncc1Cl)C(=O)c1cnn([C@@H]2CC[C@]3(C(=O)O)CCC[C@@H]3C2)c1C(F)(F)F [Example 871]
9 | 5.25 | C[C@H]1C[C@@H](n2ncc(C(=O)N(CC(=O)c3c(Cl)cncc3Cl)CC(C)(C)C)c2C(F)(F)F)CC[C@]1(C)C(=O)O [Example 873, (1S,2S,4S)-4-(4-((2-(3,5-dichloro-4-pyridinyl)-2-oxoethyl)(2,2-dimethylpropyl)carbamoyl)-5-(trifluoromethyl)-1H-pyrazol-1-yl)-1,2-dimethylcyclohexanecarboxylic acid]
10 | 7.76 | C[C@@H]1C[C@H](n2ncc(C(=O)N(CC(=O)c3c(Cl)cncc3Cl)CC(C)(C)C)c2C(F)(F)F)CC[C@@]1(C)C(=O)O [Example 874, (1R,2R,4R)-4-(4-((2-(3,5-dichloro-4-pyridinyl)-2-oxoethyl)(2,2-dimethylpropyl)carbamoyl)-5-(trifluoromethyl)-1H-pyrazol-1-yl)-1,2-dimethylcyclohexanecarboxylic acid]
